Data from US6521620B1, “Bicyclic compounds capable of inhibiting tyrosine kinases of the epidermal growth factor receptor family” (Warner-Lambert Company, priority 1994, dated 2003).
pIC50: −log10 of the molar value. Read-outs that look alike come from different tables or passages of the source.

Legend:
[1] = target: T1, Human EGF receptor tyrosine kinase (Homo sapiens, UniProt P00533); experiment: EGF receptor tyrosine kinase inhibition (phosphorylation of PLC-gamma 1 derived peptide); format: biochemical; conditions: for IC50: Table 1, values in nM, read-out: EGF Receptor Tyrosine Kinase Inhibition IC50
T1 construct: isolated from A431 human epidermoid carcinoma cells which overexpress EGF receptor; endogenous in cells; host or cells: A431 human epidermoid carcinoma cells; purified from the lysate on wheat germ agglutinin sepharose
T1 sequence (P00533 25-1210): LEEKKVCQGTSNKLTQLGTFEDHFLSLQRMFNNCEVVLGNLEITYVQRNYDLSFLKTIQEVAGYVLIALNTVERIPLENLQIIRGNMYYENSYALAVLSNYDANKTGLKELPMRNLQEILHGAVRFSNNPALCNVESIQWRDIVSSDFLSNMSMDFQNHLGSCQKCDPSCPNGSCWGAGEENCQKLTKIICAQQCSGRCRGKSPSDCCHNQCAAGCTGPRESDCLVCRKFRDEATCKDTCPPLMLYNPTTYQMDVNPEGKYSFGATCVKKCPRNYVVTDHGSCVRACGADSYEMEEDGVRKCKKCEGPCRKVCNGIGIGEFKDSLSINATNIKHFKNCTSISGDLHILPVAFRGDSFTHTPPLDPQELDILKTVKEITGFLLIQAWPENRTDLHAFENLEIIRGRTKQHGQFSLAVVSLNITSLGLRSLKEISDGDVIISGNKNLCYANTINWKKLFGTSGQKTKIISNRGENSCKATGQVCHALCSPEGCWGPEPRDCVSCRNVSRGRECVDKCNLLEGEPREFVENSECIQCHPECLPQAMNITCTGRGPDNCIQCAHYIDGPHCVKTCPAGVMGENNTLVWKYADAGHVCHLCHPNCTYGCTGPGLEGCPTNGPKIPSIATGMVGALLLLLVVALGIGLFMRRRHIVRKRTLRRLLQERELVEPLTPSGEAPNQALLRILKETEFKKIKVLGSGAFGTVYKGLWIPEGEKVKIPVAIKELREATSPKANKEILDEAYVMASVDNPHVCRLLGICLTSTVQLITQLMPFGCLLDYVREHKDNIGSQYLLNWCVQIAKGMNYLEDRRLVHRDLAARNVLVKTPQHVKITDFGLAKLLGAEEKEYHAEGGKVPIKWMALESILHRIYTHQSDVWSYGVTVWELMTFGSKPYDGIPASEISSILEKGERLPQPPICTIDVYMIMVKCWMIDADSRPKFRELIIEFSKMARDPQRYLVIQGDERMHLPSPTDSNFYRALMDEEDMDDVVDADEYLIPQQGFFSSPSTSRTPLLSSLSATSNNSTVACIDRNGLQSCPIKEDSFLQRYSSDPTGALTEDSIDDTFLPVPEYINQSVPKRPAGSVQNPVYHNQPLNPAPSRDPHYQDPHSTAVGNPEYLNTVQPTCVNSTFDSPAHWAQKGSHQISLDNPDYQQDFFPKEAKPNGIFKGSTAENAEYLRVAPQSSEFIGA
Method: Purification of Epidermal Growth Factor Receptor Tyrosine Kinase—Human EGF receptor tyrosine kinase was isolated from A431 human epidermoid carcinoma cells which overexpress EGF receptor by the following methods. Cells were grown in roller bottles in 50% Delbuco's Modified Eagle and 50% HAM F-12 nutrient media (Gibco) containing 10% fetal calf serum. Approximately 10^9 cells were lysed in two volumes of buffer containing 20 mM 2-(4N-[2-hydroxyethyl]piperazin-1-yl)ethanesulfonic acid (hepes), pH 7.4, 5 mM ethylene glycol bis(2-aminoethyl ether) N,N,N′,N′-tetraacetic acid, 1% Triton X-100, 10% glycerol, 0.1 mM sodium orthovanadate, 5 mM sodium fluoride, 4 mM pyrophosphate, 4 mM benzamide, 1 mM dithiothreitol, 80 μg/mL aprotinin, 40 μg/mL leupeptin and 1 mM phenylmethylsulfonyl fluoride. After centrifugation at 25,000×g for 10 minutes, the supernatant was equilibrated for 2 h at 4° C. with 10 mL of wheat germ agglutinin sepharose that was previously equilibrated with 50 mM Hepes, […], 0.1% Triton X-100 and 150 mM NaCl, pH 7.5, (equilibration buffer). Contaminating proteins were washed from the resin with 1 M NaCl in equilibration buffer, and the enzyme was eluted with 0.5 M N-acetyl-1-D-glucosamine in equilibration buffer, followed by 1 mM urea. The enzyme was eluted with 0.1 mg/ml EGF.
The reaction was terminated by the addition of 2 mL of […] phosphoric acid and passed through a 2.5 cm phosphocellulose filter disc to bind the peptide. The filter was washed five times with 75 mM phosphoric acid and placed in a vial along with 5 mL of scintillation fluid (Ready gel Beckman).

EGF receptor = target: T2, EGF receptor (Homo sapiens, UniProt P00533); experiment: Inhibition of EGF-induced autophosphorylation in A431 epidermoid carcinoma cells; format: cell-based
T2 construct: EGF receptor autophosphorylation in A431 human epidermoid carcinoma; endogenous in cells; host or cells: A431 human epidermoid carcinoma cells (ATCC)
T2 sequence (P00533 25-1210): as above
Method: (§1) Cells were grown to 100% confluency in 100 mm Petrie dishes (Corning). After the cells were treated for 5 minutes with either EGF (epidermal growth factor), PDGF, or bFGF (basic fibroblast growth factor) (20 ng/ml) or 1 ml of conditioned media from MDA-MB-231 cells, the media was removed and the monolayer scraped into 1 ml of ice cold lysis buffer (50 mM Hepes, pH 7.5, 150 mM NaCl, 10% glycerol, 1% triton X-100, 1 mM EDTA, 1 mM EGTA, 10 mM sodium pyrophosphate, 30 mM p-nitrophenyl phosphate, 1 mM orthovanadate, 50 mM sodium fluoride, 1 mM phenylmethylsulfonylfluoride, 10 μg/ml of aprotinin, and 10 μg/ml of leupeptin). The lysate was transferred to a microfuge tube (small centrifuge that holds 1-2 ml plastic centrifuge tubes), allowed to sit on ice 15 minutes and centrifuged 5 minutes at 10,000×g. The supernatant was transferred to a clean microfuge tube and 5 μg of antibody was added to designated samples. The tubes were rotated for 2 hours at […] after which 25 μl of protein A sepharose was added and then rotation continued for at least 2 more hours. The protein A separose was washed 5 times with 50 mM Hepes, pH 7.5, 150 mM NaCl, 10% glycerol and 0.02% sodium azide. […] The extract were transferred to a microfuge tube and heated to 100° C. for 5 minutes. […] Proteins in the gel were electrophoretically transferred to nitrocellulose and the membrane was washed once in 10 mM Tris buffer, pH 7.2, 150 mM NaCl, 0.01% Azide (TNA) and blocked overnight in TNA containing 5% bovine serum albumin and 1% ovalbumin (blocking buffer). The membrane was blotted for 2 hours with the primary antibody (1 μg/ml in blocking buffer) and then washed 2 times sequentially in TNA, TNA containing 0.05% Tween-20 and 0.05% Nonidet P-40 (commercially available detergent) and TNA.

erbB-2, 3, 4 = experiment: Inhibition of conditioned media-induced autophosphorylation in SK-BR-3 breast tumor cells; format: cell-based, human; conditions: SK-BR-3 cells, read-out: SKBR-3 IC50
Method: as §1

[2] = system: NIH 3T3 mouse fibroblast line, transfected with the human EGFR gene; experiment: Morphology of EGF-treated NIH 3T3 fibroblasts transfected with the human EGFR gene; format: cell-based; conditions: 100 ng/mL of EGF and 5 μm of compound (FIG. 17)
Method: FIG. 15 is a photograph of an NIH 3T3 mouse fibroblast line, transfected with the human EGFR gene showing a normal flattened morphology;
FIG. 16 is a photograph of the same cell line treated with 100 ng/mL of EGF showing a typical spindly transformed morphology; and […]

c-jun mRNA = experiment: Growth factor dependent expression of c-jun mRNA in Swiss 3T3 (Northern blot); format: cell-based, mouse; conditions: Swiss 3T3 cells, EGF-stimulated (FIG. 7)
Method: Total cellular RNA was isolated from untreated control or treated Swiss 3T3 cells using RNAzol-B (trademark of Tel Test Inc. for a kit used to isolate RNA from tissues) and adhered to the protocol described by the manufacturer. Forty to fifty μg of RNA was loaded onto a 1% agarose gel and electrophoresis carried out for 3-4 hours at 65 volts. The RNA in the gel was transferred by capillary action to a nylon membrane (Hybond-N, Amersham). The 40 mer c-jun probe was end labeled with [^32p]ATP using […] (Promega) and purified on a G25 sephadex column according to the procedure recommended by the supplier, Oncogene Science. Hybridization was performed overnight at 65° C. (c-jun is an immediate early transcription factor; it is one of the components of AP-1 while FOS is the second component of AP-1.
Gel of Example 40 (FIG. 7) detects mRNA-for c-jun by hybridization with a specific radiolabelled RNA probe for c-jun.

p39^c-jun = experiment: Growth factor mediated expression of p39 c-jun in Swiss 3T3 (Western blot); format: cell-based, mouse
Method: Monoclonal antibodies raised to the PDGF ([…]) receptor or phosphotyrosine were from Upstate Biotechnology, Inc., Lake Placid, N.Y. Anti-pp39^jun (antibody to the transcription factor c-jun, which is a 39 kDalton phosphoprotein) and anti-EGF receptor antibodies were from Oncogene Science, Uniondale, N.Y.
Cells were grown to 100% confluency in 100 mm Petrie dishes (Corning). After the cells were treated for 5 minutes with either EGF (epidermal growth factor), PDGF, or bFGF (basic fibroblast growth factor) (20 ng/ml) or 1 ml of conditioned media from MDA-MB-231 cells, the media was removed and the monolayer scraped into 1 ml of ice cold lysis buffer (50 mM Hepes, pH 7.5, 150 mM NaCl, 10% glycerol, 1% triton X-100, 1 mM EDTA, 1 mM EGTA, 10 mM sodium pyrophosphate, 30 mM p-nitrophenyl phosphate, 1 mM orthovanadate, 50 mM sodium fluoride, 1 mM phenylmethylsulfonylfluoride, 10 μg/ml of aprotinin, and 10 μg/ml of leupeptin). The lysate was transferred to a microfuge tube (small centrifuge that holds 1-2 ml plastic centrifuge tubes), allowed to sit on ice 15 minutes and centrifuged 5 minutes at 10,000×g. The supernatant was transferred to a clean microfuge tube and 5 μg of antibody was added to designated samples. The tubes were rotated for 2 hours at […] after which 25 μl of protein A sepharose was added and then rotation continued for at least 2 more hours. The protein A separose was washed 5 times with 50 mM Hepes, pH 7.5, 150 mM NaCl, 10% glycerol and 0.02% sodium azide. The precipitates were resuspended with 30 μl of Laemlli buffer (Laemmli, […], pp. 680-685, 1970), heated to 100° C. for 5 minutes and centrifuged to obtain the supernatant. Whole cell extracts were made by scraping cells grown in the wells of 6 well plates into 0.2 ml of boiling Laemmli buffer. The extract were transferred to a microfuge tube and heated to 100° C. for 5 minutes. […]

Row | IC50 [1] [nM] | pIC50 ([1]; enzyme value repeated in the autophosphorylation table, read-out: EGFR IC50) | pIC50 (EGF receptor) | pIC50 (erbB-2, 3, 4) | Structure (SMILES) | cell morphology [2] | c-jun mRNA production (c-jun mRNA) | c-jun expression (p39 c-jun protein) (p39^c-jun; Swiss 3T3, stimulated by EGF (FIG. 8)) | c-jun expression (p39 c-jun protein) (p39^c-jun; Swiss 3T3, stimulated by PDGF (FIG. 8)) | c-jun expression (p39 c-jun protein) (p39^c-jun; Swiss 3T3, stimulated by b-FGF (FIG. 8))
1 | 10 | 8.00 | 6.96 | ~6.10 | Nc1cc2ncnc(Nc3cccc(Br)c3)c2cn1 [Example 27, 7-Amino-4-(3-bromoanilino)pyrido[4,3-d]pyrimidine] | morphology reverted from the transformed type back to the normal type |  |  |  | 
2 | 578 |  |  |  | Nc1cc2ncnc(NCc3ccccc3)c2cn1 [Example 40, 7-Amino-4-benzylaminopyrido[4 3-d]pyrimidine] |  | blocks this production for EGF-stimulated cells | block c-jun expression | not when stimulated by PDGF or b-FGF | not when stimulated by PDGF or b-FGF
